Source: US20050153932A1, “Controlled muscle relaxation” (priority 2003, published 2005)
Where two headings read alike, the source gives them in different places.

Tests used:
[1] = tested on: M. adductor pollicis contractions; assay: Vecuronium-induced block of M. adductor pollicis contractions (TOF stimulation) and effect of Org 25969 in anaesthetised Rhesus monkeys; format: in vivo, Rhesus monkey
Method: • T1: first twitch: amplitude of the first response to TOF stimulation, expressed as percentage of control T1 (%). • T4/T1 ratio: the ratio of T4 over T1 (within one TOF stimulus) expressed as decimals.
Female Rhesus monkeys were starved overnight and sedated with 10 mg·kg^−1 ketamine i.m., followed by i.v. injection of 25 mg·kg^−1 pentobarbitone sodium and subsequent infusion of 5-10 mg·kg^−1hr^−1. The animals were intubated and ventilated with a mixture of oxygen and nitrous oxide (2:3), using a ventilator. The expired CO2 level was measured using a capnograph. The tidal volume was adjusted to obtain a CO2 level of approximately 4.5%. Oxygen saturation was measured via a probe on the earlobe using a pulse oxymeter. Blood pressure was measured non-invasively with a cuff placed on the tail. The ECG was recorded and heart rate was measured. Rectal temperature was measured and body temperature was kept at 37-38° C. using a heating blanket. The right hand and right arm of the animal were fixed to a frame using surgical tape. The thumb was connected to a force transducer. A pre-load of 200-500 mN was applied. Two needle electrode were placed near the N. ulnaris and the nerve was stimulated with train-of-four pulses (pulse duration: 2 ms, train-frequency: 0.07 Hz). At the end of the experiment, the animals were allowed to recover from anesthesia. Appropriate recovery care was given to all animals. Two groups of monkeys were used to assess the reversal effects of Org 25969 against the neuromuscular blocking agents rocuronium (Esmeron®/Zemuron®) and vecuronium (Norcuron®). In the first group, animals initially received an intravenous bolus injection of a 1×ED90 dose of rocuronium bromide to induce neuromuscular block, followed by spontaneous recovery of the twitches. After complete recovery of the twitches, each group received a second and larger 5×ED90 dose of rocuronium followed by spontaneous recovery in one subgroup, whereas the other subgroup received an intravenous bolus dose of 1150 nmol·kg^−1 Org 25969 as soon as all twitches had disappeared. In the vecuronium groups of animals, the same protocol was used, but rocuronium was replaced by vecuronium. Rocuronium bromide and vecuronium bromide were dissolved in a citric acid/phosphate/mannitol buffer (pH 4.0). Org 25969 was dissolved in saline.

rocuronium-induced block = assay: Reversal of rocuronium-induced block in several animal models; format: in vivo; details: guinea pigs, cats and monkeys
[2] = Org 25969 with rocuronium; neutral pH and 25° C.; cited from earlier work
[3] = Org 25969 with pancuronium; cited from earlier work
[4] = tested on: neuromuscular block in a patient; details: cited from earlier work; for Time to >80% block: value (range)
[5] = 5× ED90 vecuronium + 1150 nmol · kg^−1 Org 25969 i.v.
[6] = 5× ED90 vecuronium in the subgroup given 1150 nmol · kg^−1 Org 25969 once all twitches had disappeared
[7] = rocuronium 0.45 mg.kg−1, n = 50
[8] = rocuronium 0.6 mg.kg−1, n = 142

O=C(O)CCSC[C@H]1O[C@@H]2O[C@H]3[C@H](O)[C@@H](O)[C@@H](O[C@H]4[C@H](O)[C@@H](O)[C@@H](O[C@H]5[C@H](O)[C@@H](O)[C@@H](O[C@H]6[C@H](O)[C@@H](O)[C@@H](O[C@H]7[C@H](O)[C@@H](O)[C@@H](O[C@H]8[C@H](O)[C@@H](O)[C@@H](O[C@H]9[C@H](O)[C@@H](O)[C@@H](O[C@H]1[C@H](O)[C@H]2O)O[C@@H]9CSCCC(=O)O)O[C@@H]8CSCCC(=O)O)O[C@@H]7CSCCC(=O)O)O[C@@H]6CSCCC(=O)O)O[C@@H]5CSCCC(=O)O)O[C@@H]4CSCCC(=O)O)O[C@@H]3CSCCC(=O)O [Org 25969, 6-per-deoxy-6-per-(2-carboxyethyl)thio-γ-cyclodextrin]
effect on recovery from vecuronium-induced block (in words) ([1]; 1150 nmol·kg^−1 Org 25969 i.v. after 5×ED90 vecuronium): initial improvement of the time to 25% and 50% recovery values, but the recovery slowed down | 0.50-0.90 TOF ratio interval [1, 5]: 24.2 ± 3.9 min | 25-75% recovery index [1, 5]: 16.1 ± 3.7 min | time to 25% recovery of T1 [1, 5]: 9.7 ± 1.9 min | time to 90% recovery of T1 [1, 5]: 35.8 ± 7.1 min | time to TOF ratio 0.90 [1, 5]: 48.6 ± 8.3 min | block [1, 6]: 100.0 ± 0.0% | onset time [1, 6]: 1.0 ± 0.2 min | reversal of rocuronium-induced block (rocuronium-induced block): rapidly reverse rocuronium-induced block | association constant Ka [2]: about 15.10^6 M^−1 | affinity (association constant) [3]: about 2.6.10^6 M^−1

C=CC[N+]1([C@H]2C[C@H]3[C@@H]4CC[C@H]5C[C@H](O)[C@@H](N6CCOCC6)C[C@]5(C)[C@H]4CC[C@]3(C)[C@H]2OC(C)=O)CCCC1 [rocuronium, rocuronium bromide]
ED95 ([4]; neuromuscular block, clinical use): 0.30 mg/kg | Clinical duration (time until return to 25% of control T1) [4, 7]: 22 min | Time to maximum block [4, 7]: 3.0 min | Time to >80% block [4, 7]: 1.3 (0.8-6.2) min | Clinical duration (time until return to 25% of control T1) [4, 8]: 31 min | Time to maximum block [4, 8]: 1.8 min | Time to >80% block [4, 8]: 1.0 (0.4-6.0) min | Clinical duration (time until return to 25% of control T1) ([4]; rocuronium 0.9 mg.kg−1, n = 20): 58 min | Time to maximum block ([4]; rocuronium 0.9 mg.kg−1, n = 20): 1.4 min | Time to >80% block ([4]; rocuronium 0.9 mg.kg−1, n = 20): 1.1 (0.3-3.8) min | Clinical duration (time until return to 25% of control T1) ([4]; rocuronium 1.2 mg.kg−1, n = 18): 67 min | Time to maximum block ([4]; rocuronium 1.2 mg.kg−1, n = 18): 1.0 min | Time to >80% block ([4]; rocuronium 1.2 mg.kg−1, n = 18): 0.7 (0.4-1.7) min
